Test: Agonist activity at VDR in human HL60 cells assessed as induction of cell differentiation after 96 hrs by NBT reduction assay

EC50 [nM]	Structure (SMILES)
4.1	CCn1c(C(=O)N[C@@H](C)C(=O)O)ccc1C(CC)(CC)c1ccc(OCC(O)C(C)(C)C)c(C)c1 (stereo not given in full)
1600	CCC(CC)(c1ccc(OCC(O)C(C)(C)C)c(C)c1)c1ccc(C(=O)NCCC(=O)O)n1C (stereo not given)
4950	CCC(CC)(c1ccc(OCC(O)C(C)(C)C)c(C)c1)c1ccc(C(=O)NCC(=O)O)n1C (stereo not given)
410	CCC(CC)(c1ccc(OCC(=O)C(C)(C)C)c(C)c1)c1ccc(C(=O)N[C@@H](CC(=O)O)C(=O)O)n1C
2630	CCC(CC)(c1ccc(OCC(=O)C(C)(C)C)c(C)c1)c1ccc(C(=O)N[C@@H](C)C(=O)O)n1C
110	CCn1c(C(=O)N[C@H](CO)CCO)ccc1C(CC)(CC)c1ccc(OCC(O)C(C)(C)C)c(C)c1 (stereo not given in full)
1.1	CCn1c(C(=O)N[C@@H](C)CO)ccc1C(CC)(CC)c1ccc(OCC(O)C(C)(C)C)c(C)c1 (stereo not given in full)
5640	CCn1c(C(=O)NCCO)ccc1C(CC)(CC)c1ccc(OCC(O)C(C)(C)C)c(C)c1 (stereo not given)
200	CCC(CC)(c1ccc(OCC(O)C(C)(C)C)c(C)c1)c1ccc(C(=O)N[C@H](CO)CCO)n1C (stereo not given in full)
570	CCC(CC)(c1ccc(OCC(O)C(C)(C)C)c(C)c1)c1ccc(C(=O)N[C@@H](C)CO)n1C (stereo not given in full)
150	CCC(CC)(c1ccc(OCC(O)C(C)(C)C)c(C)c1)c1ccc(C(=O)NCCCO)n1C (stereo not given)
1830	CCn1c(C(=O)NCC(=O)OC)ccc1C(CC)(CC)c1ccc(OCC(=O)C(C)(C)C)c(C)c1
790	CCC(CC)(c1ccc(OCC(=O)C(C)(C)C)c(C)c1)c1ccc(C(=O)NCCC(=O)OC)n1C
23	CCC(CC)(c1ccc(OCC(=O)C(C)(C)C)c(C)c1)c1ccc(C(=O)NCC(=O)OC)n1C
7.1	C=C1/C(=C\C=C2/CCC[C@]3(C)[C@@H]([C@H](C)CC[C@@H](O)C(C)C)CC[C@@H]23)C[C@@H](O)C[C@@H]1O [TACALCITOL]

Source: BindingDB's records for doi:10.1016/j.ejmech.2013.09.015 (China Pharmaceutical University, 2013)
